# Assays:
# Format in all cases: in vivo
# Details in all cases: 250 g/ha, evaluated after 13 days
# [1] = test system: Ipomoea hederacea (IPOHE); test: Post-emergence herbicide glasshouse test
# Experimental: (§1) Seeds of a variety of test species are sown in standard soil in pots Amaranthus palmeri (AMAPA), Amaranthus retoflexus (AMARE), Echinochloa crus-galli (ECHCG), Ipomoea hederacea (IPOHE)). After cultivation for one day (pre-emergence) or after 8 days cultivation (post-emergence) under controlled conditions in a glasshouse (at 24/16° C., day/night; 14 hours light; 65% humidity), the plants are sprayed with an aqueous spray solution derived from the formulation of the technical active ingredient in acetone/water (50:50) solution containing 0.5% Tween 20 (polyoxyethelyene sorbitan monolaurate, CAS RN 9005-64-5). Compounds are applied at 250 g/ha unless otherwise stated. The test plants are then grown in a glasshouse under controlled conditions in a glasshouse (at 24/16° C., day/night; 14 hours light; 65% humidity) and watered twice daily. After 13 days for pre and post-emergence, the test is evaluated for the percentage damage caused to the plant. The biological activities are shown in the following table on a five-point scale (5=81-100%; 4=61-80%; 3=41-60%; 2=21-40%; 1=0-20%).
# [2] = test system: Amaranthus palmeri (AMAPA); test: Post-emergence herbicide glasshouse test
# Experimental: as §1
# [3] = test system: Echinochloa crus-galli (ECHCG); test: Post-emergence herbicide glasshouse test
# Experimental: as §1
# [4] = test system: Amaranthus retoflexus (AMARE); test: Post-emergence herbicide glasshouse test
# Experimental: as §1
# [5] = test system: Ipomoea hederacea (IPOHE); test: Pre-emergence herbicide glasshouse test
# Experimental: as §1
# [6] = test system: Amaranthus palmeri (AMAPA); test: Pre-emergence herbicide glasshouse test
# Experimental: as §1
# [7] = test system: Echinochloa crus-galli (ECHCG); test: Pre-emergence herbicide glasshouse test
# Experimental: as §1
# [8] = test system: Amaranthus retoflexus (AMARE); test: Pre-emergence herbicide glasshouse test
# Experimental: as §1
smiles,measurement,setting,value
Cn1cc(Cn2cc(C(F)(F)F)nc2-c2ccc(C(F)(F)F)cc2)c(C(F)(F)F)n1 [Compound 1.014],"percentage damage caused to the plant, IPOHE (five-point scale)",[1],1 (1=0-20%)
same,"percentage damage caused to the plant, AMAPA (five-point scale)",[2],1 (1=0-20%)
same,"percentage damage caused to the plant, ECHCG (five-point scale)",[3],1 (1=0-20%)
same,"percentage damage caused to the plant, AMARE (five-point scale)",[4],1 (1=0-20%)
same,"percentage damage caused to the plant, IPOHE (five-point scale)",[5],1 (1=0-20%)
same,"percentage damage caused to the plant, AMAPA (five-point scale)",[6],1 (1=0-20%)
same,"percentage damage caused to the plant, ECHCG (five-point scale)",[7],1 (1=0-20%)
same,"percentage damage caused to the plant, AMARE (five-point scale)",[8],1 (1=0-20%)
"Cn1cnc(Cn2cc(C(F)F)nc2-c2cnc(Cl)c(F)c2)n1 [Compound 1.015, 2-chloro-5-[4-(difluoromethyl)-1-[(1-methyl-1,2,4-triazol-3-yl)methyl]imidazol-2-yl]-3-fluoro-pyridine]","percentage damage caused to the plant, IPOHE (five-point scale)",[1],5 (5=81-100%)
same,"percentage damage caused to the plant, AMAPA (five-point scale)",[2],5 (5=81-100%)
same,"percentage damage caused to the plant, ECHCG (five-point scale)",[3],3 (3=41-60%)
same,"percentage damage caused to the plant, AMARE (five-point scale)",[4],5 (5=81-100%)
same,"percentage damage caused to the plant, IPOHE (five-point scale)",[5],5 (5=81-100%)
same,"percentage damage caused to the plant, AMAPA (five-point scale)",[6],5 (5=81-100%)
same,"percentage damage caused to the plant, ECHCG (five-point scale)",[7],4 (4=61-80%)
same,"percentage damage caused to the plant, AMARE (five-point scale)",[8],5 (5=81-100%)
Cc1nnc(Cn2cc(C(F)F)nc2-c2cnc(Cl)c(F)c2)s1 [Compound 1.016],"percentage damage caused to the plant, IPOHE (five-point scale)",[1],1 (1=0-20%)
same,"percentage damage caused to the plant, AMAPA (five-point scale)",[2],1 (1=0-20%)
same,"percentage damage caused to the plant, ECHCG (five-point scale)",[3],1 (1=0-20%)
same,"percentage damage caused to the plant, AMARE (five-point scale)",[4],1 (1=0-20%)
same,"percentage damage caused to the plant, IPOHE (five-point scale)",[5],1 (1=0-20%)
same,"percentage damage caused to the plant, AMAPA (five-point scale)",[6],4 (4=61-80%)
same,"percentage damage caused to the plant, ECHCG (five-point scale)",[7],1 (1=0-20%)
same,"percentage damage caused to the plant, AMARE (five-point scale)",[8],5 (5=81-100%)
Cc1nnc(Cn2cc(C(F)(F)F)nc2-c2cnc(Cl)c(F)c2)s1 [Compound 1.017],"percentage damage caused to the plant, IPOHE (five-point scale)",[1],1 (1=0-20%)
same,"percentage damage caused to the plant, AMAPA (five-point scale)",[2],5 (5=81-100%)
same,"percentage damage caused to the plant, ECHCG (five-point scale)",[3],2 (2=21-40%)
same,"percentage damage caused to the plant, AMARE (five-point scale)",[4],5 (5=81-100%)
same,"percentage damage caused to the plant, IPOHE (five-point scale)",[5],5 (5=81-100%)
same,"percentage damage caused to the plant, AMAPA (five-point scale)",[6],5 (5=81-100%)
same,"percentage damage caused to the plant, ECHCG (five-point scale)",[7],4 (4=61-80%)
same,"percentage damage caused to the plant, AMARE (five-point scale)",[8],5 (5=81-100%)
Cn1cnc(Cn2cc(C(F)(F)F)nc2-c2cnc(Cl)c(F)c2)n1 [Compound 1.018],"percentage damage caused to the plant, IPOHE (five-point scale)",[1],4 (4=61-80%)
same,"percentage damage caused to the plant, AMAPA (five-point scale)",[2],5 (5=81-100%)
same,"percentage damage caused to the plant, ECHCG (five-point scale)",[3],5 (5=81-100%)
same,"percentage damage caused to the plant, AMARE (five-point scale)",[4],5 (5=81-100%)
same,"percentage damage caused to the plant, IPOHE (five-point scale)",[5],5 (5=81-100%)
same,"percentage damage caused to the plant, AMAPA (five-point scale)",[6],5 (5=81-100%)
same,"percentage damage caused to the plant, ECHCG (five-point scale)",[7],5 (5=81-100%)
same,"percentage damage caused to the plant, AMARE (five-point scale)",[8],5 (5=81-100%)
Cn1cnc(Cn2cc(C(F)(F)F)nc2-c2ccc(F)c(F)c2)n1 [Compound 1.020],"percentage damage caused to the plant, IPOHE (five-point scale)",[1],4 (4=61-80%)
same,"percentage damage caused to the plant, AMAPA (five-point scale)",[2],5 (5=81-100%)
same,"percentage damage caused to the plant, ECHCG (five-point scale)",[3],5 (5=81-100%)
same,"percentage damage caused to the plant, AMARE (five-point scale)",[4],5 (5=81-100%)
same,"percentage damage caused to the plant, IPOHE (five-point scale)",[5],5 (5=81-100%)
same,"percentage damage caused to the plant, AMAPA (five-point scale)",[6],5 (5=81-100%)
same,"percentage damage caused to the plant, ECHCG (five-point scale)",[7],5 (5=81-100%)
same,"percentage damage caused to the plant, AMARE (five-point scale)",[8],5 (5=81-100%)
Cc1nnc(Cn2cc(C(F)(F)F)nc2-c2ccc(F)c(F)c2)s1 [Compound 1.021],"percentage damage caused to the plant, IPOHE (five-point scale)",[1],4 (4=61-80%)
same,"percentage damage caused to the plant, AMAPA (five-point scale)",[2],5 (5=81-100%)
same,"percentage damage caused to the plant, ECHCG (five-point scale)",[3],4 (4=61-80%)
same,"percentage damage caused to the plant, AMARE (five-point scale)",[4],5 (5=81-100%)
same,"percentage damage caused to the plant, IPOHE (five-point scale)",[5],5 (5=81-100%)
same,"percentage damage caused to the plant, AMAPA (five-point scale)",[6],5 (5=81-100%)
same,"percentage damage caused to the plant, ECHCG (five-point scale)",[7],5 (5=81-100%)
same,"percentage damage caused to the plant, AMARE (five-point scale)",[8],5 (5=81-100%)
Cc1cc(Cn2cc(C(F)F)nc2-c2cnc(Cl)c(F)c2)no1 [Compound 1.024],"percentage damage caused to the plant, IPOHE (five-point scale)",[1],4 (4=61-80%)
same,"percentage damage caused to the plant, AMAPA (five-point scale)",[2],5 (5=81-100%)
same,"percentage damage caused to the plant, ECHCG (five-point scale)",[3],2 (2=21-40%)
same,"percentage damage caused to the plant, AMARE (five-point scale)",[4],5 (5=81-100%)
same,"percentage damage caused to the plant, IPOHE (five-point scale)",[5],5 (5=81-100%)
same,"percentage damage caused to the plant, AMAPA (five-point scale)",[6],5 (5=81-100%)
same,"percentage damage caused to the plant, ECHCG (five-point scale)",[7],4 (4=61-80%)
same,"percentage damage caused to the plant, AMARE (five-point scale)",[8],5 (5=81-100%)
Cc1cc(Cn2cc(C(F)(F)F)nc2-c2cnc(Cl)c(F)c2)no1 [Compound 1.025],"percentage damage caused to the plant, IPOHE (five-point scale)",[1],2 (2=21-40%)
same,"percentage damage caused to the plant, AMAPA (five-point scale)",[2],4 (4=61-80%)
same,"percentage damage caused to the plant, ECHCG (five-point scale)",[3],4 (4=61-80%)
same,"percentage damage caused to the plant, AMARE (five-point scale)",[4],5 (5=81-100%)
same,"percentage damage caused to the plant, IPOHE (five-point scale)",[5],4 (4=61-80%)
same,"percentage damage caused to the plant, AMAPA (five-point scale)",[6],5 (5=81-100%)
same,"percentage damage caused to the plant, ECHCG (five-point scale)",[7],4 (4=61-80%)
same,"percentage damage caused to the plant, AMARE (five-point scale)",[8],5 (5=81-100%)
Cn1ccc(Cn2cc(C(F)(F)F)nc2-c2cnc(Cl)c(F)c2)n1 [Compound 1.026],"percentage damage caused to the plant, IPOHE (five-point scale)",[1],4 (4=61-80%)
same,"percentage damage caused to the plant, AMAPA (five-point scale)",[2],4 (4=61-80%)
same,"percentage damage caused to the plant, ECHCG (five-point scale)",[3],3 (3=41-60%)
same,"percentage damage caused to the plant, AMARE (five-point scale)",[4],4 (4=61-80%)
same,"percentage damage caused to the plant, IPOHE (five-point scale)",[5],5 (5=81-100%)
same,"percentage damage caused to the plant, AMAPA (five-point scale)",[6],5 (5=81-100%)
same,"percentage damage caused to the plant, ECHCG (five-point scale)",[7],4 (4=61-80%)
same,"percentage damage caused to the plant, AMARE (five-point scale)",[8],5 (5=81-100%)
Cc1cc(Cn2cc(C(F)(F)F)nc2-c2cnc(Cl)c(F)c2)ns1 [Compound 1.027],"percentage damage caused to the plant, IPOHE (five-point scale)",[1],4 (4=61-80%)
same,"percentage damage caused to the plant, AMAPA (five-point scale)",[2],4 (4=61-80%)
same,"percentage damage caused to the plant, ECHCG (five-point scale)",[3],4 (4=61-80%)
same,"percentage damage caused to the plant, AMARE (five-point scale)",[4],4 (4=61-80%)
same,"percentage damage caused to the plant, IPOHE (five-point scale)",[5],4 (4=61-80%)
same,"percentage damage caused to the plant, AMAPA (five-point scale)",[6],5 (5=81-100%)
same,"percentage damage caused to the plant, ECHCG (five-point scale)",[7],3 (3=41-60%)
same,"percentage damage caused to the plant, AMARE (five-point scale)",[8],5 (5=81-100%)
Fc1cc(-c2nc(C(F)(F)F)cn2Cc2cc(C3CC3)on2)cnc1Cl [Compound 1.028],"percentage damage caused to the plant, IPOHE (five-point scale)",[1],1 (1=0-20%)
same,"percentage damage caused to the plant, AMAPA (five-point scale)",[2],3 (3=41-60%)
same,"percentage damage caused to the plant, ECHCG (five-point scale)",[3],1 (1=0-20%)
same,"percentage damage caused to the plant, AMARE (five-point scale)",[4],4 (4=61-80%)
same,"percentage damage caused to the plant, IPOHE (five-point scale)",[5],4 (4=61-80%)
same,"percentage damage caused to the plant, AMAPA (five-point scale)",[6],5 (5=81-100%)
same,"percentage damage caused to the plant, ECHCG (five-point scale)",[7],1 (1=0-20%)
same,"percentage damage caused to the plant, AMARE (five-point scale)",[8],5 (5=81-100%)

# — US20260125360A1, “HERBICIDAL IMIDAZOLE COMPOUNDS” (SYNGENTA CROP PROTECTION AG, priority 2022, published 2026)
